In article PMC8546421, “Molecular modelling of the FOXO4-TP53 interaction to design senolytic peptides for the elimination of senescent cancer cells” (EBioMedicine, 2021):
Where no end group is shown, it is not given here.

Key:
Format in all cases: cell-based, human
[1] = system: senescent TP53 knockout MCF10a cells; assay: ES2 viability in TP53 knockout vs wildtype MCF10a cells; details: range of ES2 treatments
Protocol: A375-Luc/iRFP cells were purchased from Creative Biogene (CSC-RR0254). B16-F10 cells were purchased (ATCC Cat# CRL-6475, RRID:CVCL_0159). MCF7 cells were purchased (ATCC Cat# HTB-22, RRID:CVCL_0031). IMR90 cells were purchased (ATCC Cat# CCL-186, RRID:CVCL_0347). A375-Luc/iRFP, B16-F10, IMR90, and MCF7 cells were cultured in Dulbecco's Modified Eagle Medium (DMEM), 10% fetal bovine serum (FBS) and 1X penicillin-streptomycin (PS). HCT-116 cells were purchased (ATCC Cat# CCL-247, RRID:CVCL_0291). DLD-1 cells were purchased (ATCC Cat# CCL-221, RRID:CVCL_0248). SW480 cells were purchased (ATCC Cat# CCL-228, RRID:CVCL_0546). HCT-116, DLD-1, and SW480 cells were cultured in Roswell Park Memorial Institute 1640 (RPMI 1640), 10% FBS, and 1X PS. […]
Cell lines were treated with chemotherapy, doxorubicin (Sigma, Cat. No. 2252) to induce senescence (200 nM for HCT116, 100 nM for B16-F10 and MCF7, 50 nM for SW480 and DLD-1, 40 nM for A375-Luc/iRFP and MCF10a). […] Cellular proliferation was quantified using the Promega CellTiter 96™ AQueous One Solution Cell Proliferation Assay (MTS) after 2 hours according to the manufacturer's protocol (Promega, G3581). […]

[2] = system: DLD1 and SW480 cells; assay: ES2 viability (MTS) in TP53 mutant colorectal cancer cell lines; details: DLD1 (S241F heterozygous), SW480 (R273H, P309S)
Protocol: (§1) Cell lines were treated with chemotherapy, doxorubicin (Sigma, Cat. No. 2252) to induce senescence (200 nM for HCT116, 100 nM for B16-F10 and MCF7, 50 nM for SW480 and DLD-1, 40 nM for A375-Luc/iRFP and MCF10a). MCF7 cells were treated with CDK4/6 inhibitor, palbociclib (Selleck Chemicals: S1116) to induce senescence (5 µM). A375 cells were treated with Braf inhibitor, Dabrafenib (Selleck Chemicals: S2807), to induce senescence (10 µM). Peptide efficacy experiments were performed by seeding 10,000 – 20,000 cells in a 96-well plate. The cells were given doxorubicin twice to make the cells senescent. After removal of doxorubicin, the plate was treated with varying concentrations of peptide. The peptide was replenished daily for two days. Cellular proliferation was quantified using the Promega CellTiter 96™ AQueous One Solution Cell Proliferation Assay (MTS) after 2 hours according to the manufacturer's protocol (Promega, G3581). To control for the charge of ES2, ProteoJuice (Millipore Sigma, 71281) was used to deliver ES2 using the manufacturers protocol, except 50 µL of 2 mM ES2 was mixed with 25 µL of ProteoJuice. Varying concentrations of the mixture were administered to A375 cells along with a control of only ProteoJuice.

[3] = system: dividing A375 cells; assay: Peptide efficacy in culture (MTS), dividing cells; details: peptide replenished daily for two days, MTS, best fit polynomial, read-out: IC50^div, concentration to kill 50% of dividing cells
Protocol: as §1

PRKGGRRRRAWGRRRRRRRRRRRRRRAPRKRLTLA [ES2]
ES2 mediated cell death in p53−/− vs p53+/+ senescent MCF10a [1]: resistant to ES2 mediated cell death
cell death in senescent TP53 mutant cells [2]: effective at inducing cell death in senescent cells
IC50 [3]: ~17 µM
